Assays:
[1] = Moisture sorption at 25° C. (dynamic vapor sorption, DVS); assay type: physicochemical; details: for Moisture picked up (mass change): range 0 to 95% RH at 25° C.
Experimental: Moisture sorption isotherm was collected on a multi sample instrument SPS-100n (Projekt Messtechnik, Ulm, Germany) operated in stepping mode at 25° C. The sample was allowed to equilibrate at 40% RH before starting a pre-defined humidity program 40-0-95-0-95-40% RH, steps of 5% RH and with a maximal equilibration time of 24 hours per step were applied. About 20 to 30 mg of each sample was used. The hygroscopic classification as disclosed herein is done according to the European Pharmacopeia Technical Guide (1999, page 86), that is, a material is classified as “not hygroscopic or “non-hygroscopic” when the increase in mass, as measured by the DVS method disclosed herein, is less than 0.2%; a material is classified as slightly hygroscopic, when the increase in mass is less than 2% and equal to or greater than 0.2% mass/mass; finally, a material is classified as hygroscopic, when the increase in mass is less than 15% and equal to or greater than 2% mass/mass. The mass change between 40% relative humidity and 80% relative humidity in the first adsorption scan was considered. Data shown are from the first upwards cycle.

[2] = Bulk density and tapped density (Densi-tap tapping device); assay type: physicochemical; details: for Tapped density: after 3750 tappings; for Hausner ratio (HR) (ratio between tapped and bulk density): calculated from measured tapped and bulk densities; for Type of powder flow (flowability class from HR): classified from Hausner ratio; for Bulk density: powder without any processing, 10 mL glass cylinder
Experimental: Bulk and tapped density were measured on a Densi-tap tapping device from Matec using a 10 mL glass cylinder and using powder without any processing. For tapped density the value is reported after 3750 tappings.

[3] = listed as crystalline form 1 of ACT-539313

Structure (SMILES)	Hygroscopic classification according to Ph. Eur. ([1]; DVS at 25° C., mass change between 40% and 80% RH, first adsorption scan)	Moisture picked up (mass change) [1]	Tapped density ([2]; listed as amorphous ACT-539313) [g/mL]	Hausner ratio (HR) (ratio between tapped and bulk density) ([2]; listed as amorphous material)	Type of powder flow (flowability class from HR) ([2]; listed as amorphous material)	Bulk density ([2]; listed as amorphous ACT-539313) [g/mL]	Hygroscopicity compared between solid forms ([1]; cf. FIGS. 4 and 5, Tables 1 and 3)	Tapped density [2] [g/mL]	Hausner ratio (HR) (ratio between tapped and bulk density) [2, 3]	Type of powder flow (flowability class from HR) [2, 3]	Bulk density [2] [g/mL]
Cc1ccc(C(=O)N2CCOC[C@H]2Cc2cccc(-n3nccn3)c2)c(-n2nccn2)c1 [ACT-539313 in amorphous state, (4-Methyl-2-[1,2,3]triazol-2-yl-phenyl)-[(R)-3-(3-[1,2,3]triazol-2-yl-benzyl)-morpholin-4-yl]-methanone]	slightly hygroscopic according to (classified as slightly hygroscopic, when the increase in mass is less than 2% and equal to or greater than 0.2% mass/mass)	~2.6% of moisture in the range 0	0.13	2.26	very, very poor (“very, very poor” (HR>1.60))	0.06					
Cc1ccc(C(=O)N2CCOC[C@H]2Cc2cccc(-n3nccn3)c2)c(-n2nccn2)c1 [ACT-539313 in crystalline form 1, (4-Methyl-2-[1,2,3]triazol-2-yl-phenyl)-[(R)-3-(3-[1,2,3]triazol-2-yl-benzyl)-morpholin-4-yl]-methanone]		Material picks up about 0.1%					less hygroscopic than the amorphous ACT-539313	0.46	1.47	very poor (“very poor” (HR from 1.46 to 1.59))	0.31
